Data published in ChEMBL document CHEMBL1155461, “Emerging targets in osteoporosis disease modification” (J Med Chem, 2010).
≈ marks a conversion by molar mass, not a printed value.

Legend:
[1] = target: Parathyroid hormone/parathyroid hormone-related peptide receptor (Homo sapiens, UniProt Q03431)
Homo sapiens [2] = test: Antiosteoporotic activity in men with osteoporosis assessed as decrease in bone resorption-associated serum CTX-1 level at 250 mg/kg after 10 to 14 days; format: functional, organism-based; parameters: dose 250 mg/kg
Homo sapiens [3] = species on record: Homo sapiens; test: Plasma protein binding in human; settings: read-out: PPB (converted)
[4] = Clearance in dog; format: ADME, organism-based, Canis lupus familiaris; settings: in vivo
[5] = Bioavailability in dog; format: ADME, organism-based, Canis lupus familiaris; settings: in vivo
[6] = Oral bioavailability in rat; format: ADME, organism-based; settings: in vivo
[7] = target: T1, Extracellular calcium-sensing receptor (Homo sapiens, UniProt P41180)
T1 sequence (P41180 whole entry): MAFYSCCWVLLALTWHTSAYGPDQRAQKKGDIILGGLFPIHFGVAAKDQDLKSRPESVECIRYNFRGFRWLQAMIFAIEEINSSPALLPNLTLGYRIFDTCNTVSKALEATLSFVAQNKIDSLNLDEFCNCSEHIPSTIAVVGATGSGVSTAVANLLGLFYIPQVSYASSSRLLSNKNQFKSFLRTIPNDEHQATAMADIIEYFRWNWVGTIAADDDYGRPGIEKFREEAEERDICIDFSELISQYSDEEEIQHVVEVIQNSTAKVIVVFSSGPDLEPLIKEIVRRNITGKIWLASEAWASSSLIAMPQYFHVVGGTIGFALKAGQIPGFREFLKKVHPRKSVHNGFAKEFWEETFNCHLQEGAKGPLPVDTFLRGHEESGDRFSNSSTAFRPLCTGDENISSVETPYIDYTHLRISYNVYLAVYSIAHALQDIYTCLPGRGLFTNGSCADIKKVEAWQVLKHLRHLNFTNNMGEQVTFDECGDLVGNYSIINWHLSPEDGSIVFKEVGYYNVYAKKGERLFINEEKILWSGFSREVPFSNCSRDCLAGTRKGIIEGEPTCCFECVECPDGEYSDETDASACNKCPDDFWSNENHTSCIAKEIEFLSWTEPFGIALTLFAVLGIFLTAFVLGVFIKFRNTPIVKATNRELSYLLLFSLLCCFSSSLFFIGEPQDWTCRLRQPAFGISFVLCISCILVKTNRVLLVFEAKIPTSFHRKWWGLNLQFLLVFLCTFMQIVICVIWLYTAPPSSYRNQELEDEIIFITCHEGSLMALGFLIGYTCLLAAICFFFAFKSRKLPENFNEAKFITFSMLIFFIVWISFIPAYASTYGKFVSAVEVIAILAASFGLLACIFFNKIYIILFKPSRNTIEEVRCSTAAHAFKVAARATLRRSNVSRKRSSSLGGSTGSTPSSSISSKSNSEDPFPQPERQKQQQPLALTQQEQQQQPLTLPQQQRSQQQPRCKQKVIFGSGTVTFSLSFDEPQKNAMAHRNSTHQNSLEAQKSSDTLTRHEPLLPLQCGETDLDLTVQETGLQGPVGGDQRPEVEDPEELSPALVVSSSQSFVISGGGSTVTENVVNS

[8] = target: Integrin alpha-IIb/beta-3 (Homo sapiens) (UniProt P05106+P08514); test: Inhibition of integrin alpha2Bbeta3; format: protein-complex assay
Integrin alpha-V/beta-3 = Integrin alpha-V/beta-3 (Homo sapiens, UniProt P05106+P06756)
[9] = target: Vitronectin (Homo sapiens) (UniProt P04004); test: Inhibition of vitronectin
[10] = Half life in rat; format: ADME, organism-based; settings: in vivo
[11] = Clearance in rat; format: ADME, organism-based; settings: in vivo
[12] = Aqueous solubility of the compound; format: physicochemical; settings: aqueous medium
[13] = Induction of osteogenesis in mouse calvarial cells assessed as increase in total bone area at 10 nM; format: functional, Calvarial cell
[14] = Selectivity for cathepsin K over cathepsin B
[15] = Selectivity for cathepsin K over cathepsin F
[16] = Bioavailability in rat; format: ADME, organism-based; settings: in vivo
[17] = Selectivity for cathepsin K over cathepsin S
Homo sapiens [18] = test: Antiosteoporotic activity in patient with osteoporosis assessed as increase in hip bone mineral density at 50 mg/kg, po administered weekly for 24 months relative to placebo control; format: functional, Bone of hip region
[19] = Selectivity for cathepsin K over cathepsin V
[20] = Selectivity for cathepsin K over cathepsin H
[21] = Selectivity for cathepsin K over cathepsin L
Homo sapiens [22] = test: Antiosteoporotic activity in patient with osteoporosis assessed as increase in lumbar spine bone mineral density at 50 mg/kg, po administered weekly for 24 months relative to placebo control; format: functional
MC3T3-E1 [23] = test: Increase in octeocalcin mRNA expression in mouse MC3T3-E1 cells at 30 uM relative to control; format: functional
MC3T3-E1 [24] = test: Increase in ALP mRNA expression in mouse MC3T3-E1 cells at 30 uM relative to control; format: functional

Vitronectin (Homo sapiens), sequence (P04004 whole entry): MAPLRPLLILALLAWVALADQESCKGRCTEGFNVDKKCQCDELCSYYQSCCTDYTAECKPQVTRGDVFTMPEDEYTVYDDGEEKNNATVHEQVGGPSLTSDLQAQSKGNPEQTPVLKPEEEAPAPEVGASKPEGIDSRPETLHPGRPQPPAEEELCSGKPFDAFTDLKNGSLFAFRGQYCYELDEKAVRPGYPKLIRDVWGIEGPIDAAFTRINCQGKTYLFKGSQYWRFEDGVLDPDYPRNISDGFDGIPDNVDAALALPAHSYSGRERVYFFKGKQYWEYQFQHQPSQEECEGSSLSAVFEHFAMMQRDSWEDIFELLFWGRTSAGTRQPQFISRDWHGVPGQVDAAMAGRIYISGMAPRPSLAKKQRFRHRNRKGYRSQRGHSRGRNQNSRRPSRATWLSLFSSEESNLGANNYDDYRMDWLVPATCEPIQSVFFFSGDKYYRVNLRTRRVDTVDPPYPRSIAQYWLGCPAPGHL
Integrin alpha-V/beta-3, sequence (P05106 27-788 limits assumed): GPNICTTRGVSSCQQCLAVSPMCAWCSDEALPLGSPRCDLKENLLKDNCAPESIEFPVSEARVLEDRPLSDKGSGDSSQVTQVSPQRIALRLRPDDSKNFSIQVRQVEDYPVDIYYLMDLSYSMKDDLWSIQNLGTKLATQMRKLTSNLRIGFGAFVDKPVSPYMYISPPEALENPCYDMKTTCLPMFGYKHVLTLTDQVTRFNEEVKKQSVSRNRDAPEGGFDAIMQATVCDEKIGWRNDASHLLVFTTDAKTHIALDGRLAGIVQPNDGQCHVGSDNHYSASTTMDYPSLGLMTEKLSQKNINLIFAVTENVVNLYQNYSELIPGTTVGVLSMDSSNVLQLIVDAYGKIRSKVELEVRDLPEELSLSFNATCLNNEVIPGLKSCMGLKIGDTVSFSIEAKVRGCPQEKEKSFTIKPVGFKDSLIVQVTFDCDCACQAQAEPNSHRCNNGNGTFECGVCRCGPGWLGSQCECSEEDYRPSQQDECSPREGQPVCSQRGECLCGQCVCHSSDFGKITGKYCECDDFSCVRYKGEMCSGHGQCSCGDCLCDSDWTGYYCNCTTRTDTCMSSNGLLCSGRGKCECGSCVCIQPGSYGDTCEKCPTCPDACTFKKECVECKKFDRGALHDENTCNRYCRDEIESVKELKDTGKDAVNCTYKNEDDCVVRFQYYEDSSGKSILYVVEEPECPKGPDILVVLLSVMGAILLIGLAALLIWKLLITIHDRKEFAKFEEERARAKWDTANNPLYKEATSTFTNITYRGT
Integrin alpha-V/beta-3, sequence (P06756 31-889 limits assumed): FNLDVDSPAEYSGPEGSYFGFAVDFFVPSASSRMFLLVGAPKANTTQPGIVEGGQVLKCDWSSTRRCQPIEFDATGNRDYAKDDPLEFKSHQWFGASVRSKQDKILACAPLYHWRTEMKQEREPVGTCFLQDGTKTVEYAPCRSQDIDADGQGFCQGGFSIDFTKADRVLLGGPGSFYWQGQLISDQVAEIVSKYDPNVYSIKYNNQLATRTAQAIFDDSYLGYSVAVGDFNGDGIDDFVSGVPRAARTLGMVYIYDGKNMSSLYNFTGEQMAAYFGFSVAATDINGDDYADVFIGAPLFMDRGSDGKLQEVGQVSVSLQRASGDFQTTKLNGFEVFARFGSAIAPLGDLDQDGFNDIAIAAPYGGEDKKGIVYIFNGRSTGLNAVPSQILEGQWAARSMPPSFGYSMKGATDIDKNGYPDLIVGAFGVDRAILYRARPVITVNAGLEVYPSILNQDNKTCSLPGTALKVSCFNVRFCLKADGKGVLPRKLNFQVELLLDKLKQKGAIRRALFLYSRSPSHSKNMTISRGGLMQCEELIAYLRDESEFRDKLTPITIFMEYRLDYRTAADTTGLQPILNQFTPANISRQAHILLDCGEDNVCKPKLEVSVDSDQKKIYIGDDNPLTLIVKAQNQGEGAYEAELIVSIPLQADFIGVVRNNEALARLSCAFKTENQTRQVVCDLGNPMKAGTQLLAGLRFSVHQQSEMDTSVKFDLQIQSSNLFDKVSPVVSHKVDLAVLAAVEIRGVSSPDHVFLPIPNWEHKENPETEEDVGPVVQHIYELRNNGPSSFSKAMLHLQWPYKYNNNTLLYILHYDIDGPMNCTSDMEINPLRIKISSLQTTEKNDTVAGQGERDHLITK
Integrin alpha-V/beta-3, sequence (P06756 891-1048 limits assumed): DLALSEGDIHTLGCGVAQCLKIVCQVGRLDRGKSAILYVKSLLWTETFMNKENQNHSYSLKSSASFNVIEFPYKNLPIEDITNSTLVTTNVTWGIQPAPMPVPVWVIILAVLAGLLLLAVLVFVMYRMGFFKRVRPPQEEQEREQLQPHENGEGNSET
Parathyroid hormone/parathyroid hormone-related peptide receptor, sequence (Q03431 whole entry): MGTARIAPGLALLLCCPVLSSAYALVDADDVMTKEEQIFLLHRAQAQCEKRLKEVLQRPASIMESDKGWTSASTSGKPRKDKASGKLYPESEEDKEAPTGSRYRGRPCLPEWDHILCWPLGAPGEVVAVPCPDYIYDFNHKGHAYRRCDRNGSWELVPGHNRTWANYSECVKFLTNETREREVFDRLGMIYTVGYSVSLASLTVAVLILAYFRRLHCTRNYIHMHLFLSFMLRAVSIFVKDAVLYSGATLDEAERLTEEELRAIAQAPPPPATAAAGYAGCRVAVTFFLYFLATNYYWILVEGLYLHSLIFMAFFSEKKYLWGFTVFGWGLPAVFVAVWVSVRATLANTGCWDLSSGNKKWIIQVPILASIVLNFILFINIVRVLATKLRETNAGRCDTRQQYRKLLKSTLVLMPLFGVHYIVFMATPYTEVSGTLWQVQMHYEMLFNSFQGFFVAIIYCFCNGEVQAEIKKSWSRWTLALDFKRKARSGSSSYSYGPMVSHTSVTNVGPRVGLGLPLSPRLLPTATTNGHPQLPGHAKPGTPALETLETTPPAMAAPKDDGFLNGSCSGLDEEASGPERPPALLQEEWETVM

Compound: CCCCN1C(=O)C(=C(N)N)C(=O)N(CCCC)C1=O
- EC50 [1]: 3200 nM
- EC50 (Homo sapiens [2]): 1500 nM

Compound: COc1ccc([C@@H](CCC[C@H](O)CCc2ccc3c(n2)NCCC3)CC(=O)O)cn1
- fraction unbound (Homo sapiens [3]): 0.07
- clearance [4]: 2.5 mL/min/kg
- bioavailability [5]: 60%

Compound: Cc1ccc(CC(C)(C)NC[C@@H](O)CO[C@H](C)c2ccccc2[C@@H]2C[C@@H]3C[C@H]2[C@H]2[C@H](C(=O)O)[C@@H]32)cc1F
- bioavailability [6]: 60%
- IC50 [7]: 25 nM

Compound: COc1cc(C(=O)NC[C@H](NS(=O)(=O)c2ccccc2)C(=O)O)ccc1N1CCC(NC2=NCCCN2)CC1
- INH [8]: 0.44 nM
- IC50 (Integrin alpha-V/beta-3): 0.19 nM
- INH [9]: 110 nM
- half-life [10]: 46 min
- clearance [11]: 47 mL/min/kg
- solubility [12]: 1300 µg/mL (≈ 2330 µM)

Compound: O=S(=O)(NC1CCNCC1)c1cc(S(=O)(=O)c2ccccc2)ccc1C(F)(F)F
- Activity [13]: 60%

Compound: CC(C)(F)C[C@H](N[C@@H](c1ccc(-c2ccc(S(C)(=O)=O)cc2)cc1)C(F)(F)F)C(=O)NC1(C#N)CC1 [ODANACATIB]
- Selectivity ratio [14]: 5170
- Selectivity ratio [15]: 3980
- bioavailability [16]: ≤ 38%
- Selectivity ratio [17]: 300
- Activity (Homo sapiens [18]): 3.2%
- Selectivity ratio [19]: 3810
- Selectivity ratio [20]: > 50000
- Selectivity ratio [21]: 15000
- Activity (Homo sapiens [22]): 5.5%
- bioavailability [5]: ≤ 100%

Compound: C/C(=C\Cc1c(O)cc2occ(-c3ccc(O)cc3)c(=O)c2c1O)CO [GLABRISOFLAVONE]
- Activity (MC3T3-E1 [23]): 58%
- Activity (MC3T3-E1 [24]): 58%
